From PubChem BioAssay (NCI) come the findings set out here.

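Each compound was tested at five concentrations against cells in 96-well plates for 48 hours. Here, GI50 denotes the concentration required for 50% inhibition of growth. TGI denotes the concentration required for complete inhibition of growth.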

Test systems include DMS 273 small cell lung; KM20L2 colon; XF 498 CNS; DLD-1 colon; M19-MEL melanoma; LXFL 529 NSCLC; RXF-631 renal; DMS 114 small cell lung; MDA-N; SN12K1 renal.
Experiment in all cases: NCI tumour cell line growth inhibition, 48 h

For `CS(=O)(=O)OC1CCC2(C#N)CCC1C2=O` (stereo not drawn), the TGI in the test with DMS 273 small cell lung, in the test on KM20L2 colon, with XF 498 CNS, in the test on DLD-1 colon, in the test with M19-MEL melanoma and in the test with LXFL 529 NSCLC was above 100 µM throughout. The TGI with RXF-631 renal is above 100 µM.
As for `O=[N+]([O-])c1ccc(C[P+](c2ccccc2)(c2ccccc2)c2ccccc2)cc1`, the TGI with DMS 273 small cell lung was above 100 µM; with KM20L2 colon, above 100 µM; in the test on DLD-1 colon it was above 100 µM; in the test on DMS 114 small cell lung, above 100 µM; in the test with M19-MEL melanoma it was 81.2 µM; in the test with LXFL 529 NSCLC it was above 100 µM.
As to `C=CCOc1cc(NC(=S)c2ccoc2C)ccc1OC`, in the test on MDA-N, the TGI is above 100 µM.
Consider `CC1=C(C(=O)Nc2cc(=O)n(C)c(=O)n2C)C(c2ccco2)C(C(=O)Nc2cc(=O)n(C)c(=O)n2C)=C(C)N1`, for which the TGI with KM20L2 colon, with XF 498 CNS, with DLD-1 colon, in the test with DMS 114 small cell lung, in the test with M19-MEL melanoma and with LXFL 529 NSCLC was above 100 µM throughout. In addition, the TGI with RXF-631 renal is above 100 µM.
On to `CC1(C)O[C@H]2[C@H](O)C[C@](O)(CO)C[C@H]2O1`, for which the TGI in the test on DMS 273 small cell lung, with KM20L2 colon, in the test on DLD-1 colon, in the test with DMS 114 small cell lung, in the test on M19-MEL melanoma and in the test on LXFL 529 NSCLC was above 100 µM throughout. Besides, the TGI with RXF-631 renal was above 100 µM.
On to `CCc1ccccc1NC(=O)C1=C(C)NC(C)=C(C(=O)Nc2ccccc2CC)C1c1ccccc1Cl`, for which the TGI in the test on KM20L2 colon, with XF 498 CNS, with DLD-1 colon, in the test on DMS 114 small cell lung, in the test with M19-MEL melanoma and in the test on LXFL 529 NSCLC was above 100 µM in each case.
For `Cc1c2ccncc2c(C)c2c1[nH]c1ccc(OC(C)C)cc12`, the TGI in the test on DMS 273 small cell lung was determined as 2.07 µM; with KM20L2 colon, 2.59 µM; in the test with XF 498 CNS it was 2.91 µM; in the test on DLD-1 colon it was 3.13 µM; with DMS 114 small cell lung, 3.24 µM; in the test with M19-MEL melanoma it was 3.42 µM. For the same compound, the TGI with LXFL 529 NSCLC came to 2.1 µM.
In the case of `O=C(O)CCC(=O)N1c2ccccc2CC1c1c[nH]c2ccccc12` (stereo not drawn), the TGI in the test with DMS 273 small cell lung, in the test with KM20L2 colon, in the test on XF 498 CNS, in the test with DMS 114 small cell lung, in the test on M19-MEL melanoma and in the test on LXFL 529 NSCLC was above 100 µM throughout.
Regarding `CC1=C(c2ccccc2)C(c2ccccc2)=C(c2ccccc2)C2(c3ccccc3)C(=O)C(C)CN12` (stereo not drawn), the TGI is above 100 µM in the test with DMS 273 small cell lung; above 100 µM in the test with KM20L2 colon; 82.8 µM in the test with XF 498 CNS; above 100 µM with DLD-1 colon; above 100 µM with M19-MEL melanoma; above 100 µM in the test with LXFL 529 NSCLC.
Take `O=C1N(C2CCCCC2)CC12CCCCC2`: the TGI with DMS 273 small cell lung, in the test with KM20L2 colon, in the test with XF 498 CNS, with DMS 114 small cell lung, with M19-MEL melanoma and with RXF-631 renal was above 100 µM each time.
Consider `C[C@]12CC[C@@H]3c4ccc(OC(=O)N(CCCl)CCCl)cc4CC[C@H]3[C@@H]1CC[C@@H]2O`, for which the TGI was 24.2 µM in the test with DMS 273 small cell lung, 0.276 µM in the test with SN12K1 renal, 1.05 µM with DLD-1 colon and 0.254 µM in the test on M19-MEL melanoma.
Consider `Cc1nnn[n-]1.N.N.N.N.N.[Cl-].[Co+3]`, for which the GI50 with DMS 273 small cell lung, in the test with KM20L2 colon, in the test with DLD-1 colon and with LXFL 529 NSCLC was above 100 µM in each case. The TGI with DMS 273 small cell lung, in the test on KM20L2 colon, with DLD-1 colon and in the test on LXFL 529 NSCLC was above 100 µM each time.
Turning to `O=C(O)C1=C(O)C(C(=O)O)C23CCCCCCCCCCC12C(C(=O)O)C(O)=C3C(=O)O` (stereo not drawn), the TGI in the test with DMS 273 small cell lung, in the test on XF 498 CNS, in the test with DLD-1 colon, with DMS 114 small cell lung, in the test with M19-MEL melanoma and with LXFL 529 NSCLC was above 100 µM each time.
Turning to `COc1cc(Br)c(C=Nc2cccc3cc(OC)c(OC)cc23)cc1OC`, the TGI was above 100 µM in the test with DMS 273 small cell lung; above 100 µM in the test on KM20L2 colon; above 100 µM in the test with DLD-1 colon; 50.4 µM in the test with DMS 114 small cell lung; above 100 µM in the test on M19-MEL melanoma; above 100 µM in the test on LXFL 529 NSCLC. In the test on RXF-631 renal, this compound gave a TGI above 100 µM.
With `C/C(=N\NC(=S)N1CC2CCC(CC2)C1)c1nccs1`, the TGI was determined as 4.93 µM with DMS 273 small cell lung; 1.35 µM in the test on KM20L2 colon; 15.2 µM with SN12K1 renal; 13.8 µM in the test on XF 498 CNS; 17.3 µM with DLD-1 colon; 0.218 µM with DMS 114 small cell lung. Moreover, the values for the TGI in the test on M19-MEL melanoma, with LXFL 529 NSCLC and in the test with RXF-631 renal were 1.8 µM, 15.8 µM and 17.6 µM, respectively.
`COc1cc(C(O)CCBr)c(OC)cc1C` (stereo not drawn): the TGI with MDA-N was above 20.9 µM.
Take `N#CC1(C#N)C2(c3ccccc3)OC(c3ccccc3)(c3cc4ccccc4cc32)C1(C#N)C#N`: the TGI in the test on DMS 273 small cell lung was found to be 32 µM; with KM20L2 colon, 26.4 µM; in the test with MDA-N it was 34.4 µM; in the test with DLD-1 colon it was 22.3 µM; in the test on DMS 114 small cell lung, 22.2 µM; in the test with LXFL 529 NSCLC, 3.14 µM.
For `O/N=C1/C(=C/c2ccc3c(c2)OCO3)CCCC1C(NO)c1ccc2c(c1)OCO2` (stereo not drawn), the TGI with DMS 273 small cell lung was 47.3 µM; in the test on KM20L2 colon, 34.6 µM; with XF 498 CNS, 62.2 µM; in the test on DLD-1 colon, 98.8 µM; in the test with DMS 114 small cell lung, 60.7 µM; in the test on M19-MEL melanoma, 62 µM. Moreover, the TGI in the test with LXFL 529 NSCLC is 51.4 µM.
For `O.O.[NH-]C1(C(=O)O)CCCC1.[NH-]C1(C(=O)O)CCCC1.[Ni+2]`, in the test with MDA-N, the GI50 is above 100 µM and the TGI is above 100 µM.
In the case of `O=C(O)CCCSC(=O)Nc1ccc(N=Nc2ccccc2)cc1`, the TGI in the test with DMS 273 small cell lung, in the test with KM20L2 colon, with DMS 114 small cell lung and in the test with LXFL 529 NSCLC was above 100 µM throughout.
